Assay results taken from patent US8901130B2, “Low hygroscopic aripiprazole drug substance and processes for the preparation” (Ostuka Pharmaceutical Co., Ltd., priority 2001, dated 2014).

Assay: Hygroscopicity test (60° C./100% RH, 24 hours, Karl Fischer water content)
Type: physicochemical
Conditions: for hygroscopicity (water content after exposure): left for 24 hours in a dessicator set at humidity 100%; for hygroscopicity (water content after exposure) / Moisture Content After 24 hrs (%): temperature 60° C.; for Moisture Content After 24 hrs (%): 24 hours in dessicator at humidity 100%; for Initial Moisture Content (%): before exposure to 60° C./100% humidity
Procedure: (7) Hygroscopicity Test Method
One g of the sample was accurately weighed, in a weighing bottle (diameter 5 cm), covered with kimwipes and left to rest in a 60° C./100% RH environment (water/dessicator). 24 hours later, the weighing bottle was removed, transferred to an environment of a room temperature and about 30% RH (magnesium chloride hexahydrate saturated water solution/dessicator) and left, to rest for 24 hours and the water content of the sample was measured by the Karl Fischer method.

| SMILES | hygroscopicity (water content after exposure) | Moisture Content After 24 hrs (%) | Initial Moisture Content (%) |
| --- | --- | --- | --- |
| O=C1CCc2ccc(OCCCCN3CCN(c4cccc(Cl)c4Cl)CC3)cc2N1 [Anhydrous Aripiprazole Crystals B, aripiprazole] | ≤ 0.4% | – | – |
| O=C1CCc2ccc(OCCCCN3CCN(c4cccc(Cl)c4Cl)CC3)cc2N1 [Example 2, aripiprazole] | ≤ 0.4% | 0.04 | 0.04 |
| O=C1CCc2ccc(OCCCCN3CCN(c4cccc(Cl)c4Cl)CC3)cc2N1 [Example 3, aripiprazole] | ≤ 0.4% | 0.02 | 0.02 |
| O=C1CCc2ccc(OCCCCN3CCN(c4cccc(Cl)c4Cl)CC3)cc2N1 [Example 4, aripiprazole] | ≤ 0.4% | 0.02 | 0.02 |
| O=C1CCc2ccc(OCCCCN3CCN(c4cccc(Cl)c4Cl)CC3)cc2N1 [Example 5, aripiprazole] | ≤ 0.4% | 0.04 | 0.04 |
| O=C1CCc2ccc(OCCCCN3CCN(c4cccc(Cl)c4Cl)CC3)cc2N1 [Example 6, aripiprazole] | ≤ 0.4% | 0.04 | 0.04 |
| O=C1CCc2ccc(OCCCCN3CCN(c4cccc(Cl)c4Cl)CC3)cc2N1 [Example 7, aripiprazole] | ≤ 0.4% | 0.03 | 0.04 |
| O=C1CCc2ccc(OCCCCN3CCN(c4cccc(Cl)c4Cl)CC3)cc2N1 [Example 8, aripiprazole] | ≤ 0.4% | 0.03 | 0.04 |
| O=C1CCc2ccc(OCCCCN3CCN(c4cccc(Cl)c4Cl)CC3)cc2N1 [Example 9, aripiprazole] | ≤ 0.4% | 0.01 | 0.03 |
| O=C1CCc2ccc(OCCCCN3CCN(c4cccc(Cl)c4Cl)CC3)cc2N1 [Example 10, aripiprazole] | no more than 0.4% | 0.05 | 0.05 |
| O=C1CCc2ccc(OCCCCN3CCN(c4cccc(Cl)c4Cl)CC3)cc2N1 [Example 11, aripiprazole] | ≤ 0.4% | 0.03 | 0.03 |
| O=C1CCc2ccc(OCCCCN3CCN(c4cccc(Cl)c4Cl)CC3)cc2N1 [Example 12, aripiprazole] | ≤ 0.4% | 0.03 | 0.04 |

Other lines, results leading:

| hygroscopicity (water content after exposure) | Moisture Content After 24 hrs (%) | Initial Moisture Content (%) | SMILES |
| --- | --- | --- | --- |
| ≤ 0.4% | 0.03 | 0.04 | O=C1CCc2ccc(OCCCCN3CCN(c4cccc(Cl)c4Cl)CC3)cc2N1 [Example 13, aripiprazole] |
| ≤ 0.4% | 0.09 | 0.06 | O=C1CCc2ccc(OCCCCN3CCN(c4cccc(Cl)c4Cl)CC3)cc2N1 [Example 14, aripiprazole] |
| ≤ 0.4% | 0.04 | 0.04 | O=C1CCc2ccc(OCCCCN3CCN(c4cccc(Cl)c4Cl)CC3)cc2N1 [Example 15, aripiprazole] |
| 3.28% | 3.28 | 0.04 | O=C1CCc2ccc(OCCCCN3CCN(c4cccc(Cl)c4Cl)CC3)cc2N1 [Reference Example 1, aripiprazole] |
| 1.78% | 1.78 | 0.04 | O=C1CCc2ccc(OCCCCN3CCN(c4cccc(Cl)c4Cl)CC3)cc2N1 [Reference Example 2, aripiprazole] |
